Results taken from patent US5136093A, “Quaternized panthenol compounds and their use” (priority 1991, dated 1992).
Entries after “also recorded” stand apart in the source; their conditions may differ.

Experiments:
[1] = aqueous solutions; hydrolysis increases as pH varies from optimum; cited from earlier work
[2] = Rubine dye uptake (substantivity) on human hair swatches/tresses; conditions: for Rubine dye uptake / uptake with respect to the positive control: 50% aqueous solution (panthenol) or 50% solids aqueous solution; for Rubine dye uptake: Demeo Natural White Hair, read at 520 nm; for uptake with respect to the positive control: relative to positive control; for greater uptake than the unquaternized panthenol: human hair swatches
Source text: In the following Examples, the qualitative test for measuring the substantivity of the compounds on hair was the Rubine Dye Test using Pyrazol Fast Bordeaux, as described in U.S. Pat. No. 3,769,398 to Hewitt and Crawford et al. J. Soc. Cosmet. Chem. 31, 273-278 (1980), the entire disclosures of which are incorporated herein by reference. The intensity of the residual pink color, after rinsing, on a hair swatch previously treated with the compound, is an indication of the degree of deposition of the compound onto the hair. Absence of pink color points to a lack of substantivity.
In a one liter reaction flask, fitted with a stirrer, thermometer reflux condenser, heating mantle and a feed funnel, 205 grams of deionized water was charged. 205 grams (1 mole) of d,l-panthenol was charged in the water and stirred until dissolved. In a separate, stirred, one liter vessel, 376 grams (1 mole) of 50% aqueous QUAB 188 (3-Chloro-2-hydroxypropyl trimethylammonium chloride) was reacted with approximately 80 grams (1 mole) of 50% aqueous sodium hydroxide solution, to form a solution of QUAB 151 (2, 3-Epoxypropyl trimethyl ammonium chloride), to a pH of ^~ 9.5. The batch was heated to 50°-60° C., and the QUAB 151 solution was added to the panthenol solution through the feed funnel. The pH of the reaction mixture was checked, and adjusted to ^~ 9.5 with a small additional amount of 50% sodium hydroxide solution, as required. The batch was then agitated at 50°-60° C. for a four hour period to assure complete reaction. The pH of the batch was then adjusted to 6.5-8.0 with a small amount of lactic acid. The resultant product was a clear yellow solution, containing approximately 50% of trimethyl quaternized panthenol.
In a two liter reaction flask, fitted with a stirrer, thermometer, reflux condenser, heating mantle and a feed funnel, 205 grams of deionized water was charged. 205 grams (1 mole) of d,l- panthenol was charged into the water and stirred until dissolved. In a separate stirred one liter vessel, 852 grams (1 mole) of 50% aqueous QUAB 426 (3-Chloro-2-hydroxypropyl stearyl dimethylammonium chloride) was reacted with approximately 80 grams (1 mole) of 50% aqueous sodium hydroxide solution, to form a solution of QUAB 393 (2,3-Epoxypropyl stearyl dimethyl ammonium chloride), to a pH of ^~ 9.5. The batch was heated to 50°-60° C., and the QUAB 393 solution was added to the panthenol solution through the feed funnel. The pH of the reaction mixture was checked, and adjusted to ^~ 9.5 with a small additional amount of 50% sodium hydroxide solution, as required. The batch was then agitated at 50°-60° C. for a four hour period to assure complete reaction. The pH of the batch was then adjusted to 6.5-8.0 with a small amount of lactic acid. The resultant product was a clear yellow solution, containing approximately 50% solids, of which approximately 43% was stearyl dimethyl quaternized panthenol.
Rubine Dye uptake as a measure of substantivity.
Four tresses of Demeo Natural White Hair weighing approximately 0.5 grams each were immersed in 15 grams of the appropriate solution (i.e. positive control, negative control and test samples) for a period of not less than 5 minutes. Each tress was then rinsed five times with 100 ml of water at 120° F.
The tresses were then immersed in a solution of fast Rubine dye for 15 minutes, rinsed five times with 100 ml of water at 105° F., then air dried overnight on filter paper. Each tress was weighed directly into a tared beaker. The dye was stripped from the hair and the solution then brought to the volume with deionized water. The transmission of each sample was then read at 520 nm and its absorbance adjusted to the weight of the hair sample. The dye concentration was calculated from a standard calibration curve.

[3] = Compatibility with formulation ingredients; format: physicochemical; conditions: in finished cosmetic formulation
Description: Procedure: The water was weighed into a beaker. Each Phase A ingredient was then added to the water phase in the order listed and mixed thoroughly after the addition of each ingredient. The fragrance was dissolved in the alcohol and Phase B was added to Phase A and mixed until clear and uniform.
Procedure: Phase A was heated to 55° C. Phase B was added and mixed until uniform. Phase C ingredients were added in the order listed and mixed until uniform. When the batch cooled to 45° C., Phase E and Phase F were added and the batch was mixed until uniform. The pH was adjusted with Citric Acid. Phase H was added and the batch was mixed until uniform.
Procedure: The Siltech C-2145CG emulsion was predispersed in the Phase A water in a beaker. The Phase "B" ingredients were dissolved one at a time into the remainder of the water and mixed until clear. Phase "C" ingredients were mixed until clear and uniform. Phase "A" was added to Phase "B" with agitation. Then Phase "C" and "D" were added and the batch was mixed until uniform.
Procedure: Phase A was weighed into a beaker and was then mixed until clear and uniform. Phase B and then Phase C were added to Phase A while mixing. The batch was mixed until clear and uniform.
Procedure: Ucare Polymer JR was dispersed in the water. After the polymer was dispersed, the Methylparaben was added. Phase A was then heated to 60° C. […]

SMILES	optimum pH for stability [1]	Rubine dye uptake [2]	uptake with respect to the positive control [2] [%]	also measured
CC(C)(CO)C(O)C(=O)NCCCO (racemic) [d,l-Panthenol]	approximately 6			
CCCCCCCCCCCCCCCCCC[N+](C)(C)CC(O)COCC(C)(C)C(O)C(=O)NCCCO (racemic) [stearyl dimethyl quaternized panthenol]		66.30 mg of dye/50 gm of hair	46.74	greater uptake than the unquaternized panthenol, adjusted for concentration of active material ([2]; 50% solids aqueous solution vs panthenol 50% aqueous solution, adjusted for concentration of active material): ~31%; greater uptake than the unquaternized panthenol ([2]; versus a 50% panthenol solution, not adjusted for active material): ~27%; compatibility with other ingredients [3]: compatible with the anionic surfactants that make up the shampoo; also recorded: compatible with the cationic silicone emulsion (Siltech E-2145CG) and with the hair fixative polymer; also recorded: compatible with the hair fixative polymer and with the ethanol; also recorded: compatible with the other cationic ingredients in the formula; also recorded: compatible with all of the nonionic ingredients in the formula; also recorded: compatible with the anionic soaps and surfactants in the Neutrogena™ soap bar
CC(C)(COCC(O)C[N+](C)(C)C)C(O)C(=O)NCCCO (racemic) [trimethyl quaternized panthenol]				greater uptake than the unquaternized panthenol ([2]; versus panthenol solution of comparable concentration): ~7%
CC(C)(CO)C(O)C(=O)NCCCO (stereo not shown) [Panthenol]		52.35 mg of dye/50 gm of hair	36.91	
CC(C)(CO)[C@@H](O)C(=O)NCCCO [d-Panthenol]	approximately 6			
